Values joined by “and” are separate entries in the source; they are usually repeats but may differ in a detail not shown here. Equal values may be shown once.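 Assay format: 96-well plates, 48-hour exposure. At the GI50, growth is halved.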 Active and inactive are the calls of the source. Rule as the data show it: active = GI50 up to about 1.1 µM and inactive = higher.
Assays:
Assay in all cases: NCI-60 cell line screen, 48 h
[1] = test system: A498
[2] = test system: COLO 205
[3] = test system: HCT-116
[4] = test system: HCT-15
[5] = test system: HT-29
[6] = test system: LOX IMVI
[7] = test system: MDA-MB-231
[8] = test system: Malme-3M
[9] = test system: NCI-H522
[10] = test system: OVCAR-8
[11] = test system: RPMI-8226
[12] = test system: SK-MEL-28
[13] = test system: SN12C
[14] = test system: SR
[15] = test system: UACC-257
[16] = test system: UACC-62
[17] = test system: UO-31
[18] = test system: SW-620
[19] = test system: T47D

Row | SMILES | GI50 [1] | GI50 [2] | GI50 [3] | GI50 [4] [µM] | GI50 [5] | GI50 [6] | GI50 [7] | GI50 [8] | GI50 [9] | GI50 [10] | GI50 [11] | GI50 [12] | GI50 [13] | GI50 [14] | GI50 [15] | GI50 [16] | GI50 [17] | GI50 [18] | GI50 [19]
1 | CCN1C(=O)/C(=C2\SC(c3ccccc3)(c3ccccc3)c3ccccc32)SC1=S | 46 µM (inactive) | 64.4 µM (inactive) | 47 µM (inactive) | > 100 | > 100 µM (inactive) | 38.6 µM (inactive) | 72.3 µM (inactive) | > 100 µM (inactive) | > 100 µM (inactive) | 75.5 µM (inactive) | > 100 µM (inactive) | 94.2 µM (inactive) | > 100 µM (inactive) | 18.6 µM (inactive) | > 100 µM (inactive) | > 100 µM (inactive) | > 100 µM (inactive) | – | –
2 | C/C=C1/C[C@@H](C)[C@@](C)(O)C(=O)OCC2=CC[N+]3([O-])CC[C@@H](OC1=O)[C@@H]23 (stereo not given in full) [SENECIONINE N-OXIDE] | > 100 µM (inactive) | > 100 µM (inactive) | > 100 µM (inactive) | > 100 | > 100 µM (inactive) | > 100 µM (inactive) | > 100 µM (inactive) | 94.6 µM (inactive) | > 100 µM (inactive) | > 100 µM (inactive) | – | > 100 µM (inactive) | > 100 µM (inactive) | – | > 100 µM (inactive) | > 100 µM (inactive) | > 100 µM (inactive) | > 100 µM (inactive) | > 100 µM (inactive)
3 | COc1ccc(C2Oc3c(OC)cc(CCCO)cc3C2CO)cc1OC (stereo not given) | – | > 100 µM (inactive) | > 100 µM (inactive) | > 100 | > 100 µM (inactive) | – | 99.3 µM (inactive) | > 100 µM (inactive) and 50.7 µM (inactive) | 86.7 µM (inactive) | > 100 µM (inactive) and 89.3 µM (inactive) | – | 74 µM (inactive) | > 100 µM (inactive) | – | – | 54.6 µM (inactive) and 83.9 µM (inactive) | – | > 100 µM (inactive) | 10.9 µM (inactive) and 18.3 µM (inactive)
4 | C#CCn1c(=O)c(I)cn(/C(=C/C(=O)OCC)C(=O)OCC)c1=O | 19.1 µM (inactive) | 0.667 µM (active) | 1.85 µM (inactive) | 2.74 | 12.6 µM (inactive) | 4.95 µM (inactive) | 15.2 µM (inactive) | 1.52 µM (inactive) | 0.649 µM (active) | 3.56 µM (inactive) | 0.746 µM (active) | 8 µM (inactive) | 15.9 µM (inactive) | – | 3.06 µM (inactive) | 5.42 µM (inactive) | 1.53 µM (inactive) | 1.18 µM (inactive) | 0.818 µM (active)
5 | NC(=O)CCC(Nc1c2ccccc2nc2ccccc12)C(=O)O (stereo not given) | – | > 100 µM (inactive) | 91 µM (inactive) | > 100 | 93.1 µM (inactive) | 63.7 µM (inactive) | – | > 100 µM (inactive) | > 100 µM (inactive) | > 100 µM (inactive) | 17.2 µM (inactive) | > 100 µM (inactive) | > 100 µM (inactive) | 55.2 µM (inactive) | 65.8 µM (inactive) | – | – | > 100 µM (inactive) | –
6 | CCNC(=O)Cc1nc2c(O)ncnc2n1C1OC(CO)C(O)C1O (stereo not given) | > 100 µM (inactive) | > 100 µM (inactive) | > 100 µM (inactive) | > 100 | > 100 µM (inactive) | > 100 µM (inactive) | > 100 µM (inactive) | > 100 µM (inactive) | > 100 µM (inactive) | > 100 µM (inactive) | > 100 µM (inactive) | > 100 µM (inactive) | > 100 µM (inactive) | – | > 100 µM (inactive) | > 100 µM (inactive) | > 100 µM (inactive) | > 100 µM (inactive) | > 100 µM (inactive)
7 | Cc1cc(C)c(N[S+]([O-])c2cccc([N+](=O)[O-])c2)c(C)c1 (stereo not given) | > 100 µM (inactive) | > 100 µM (inactive) | – | > 100 | > 100 µM (inactive) | – | – | > 100 µM (inactive) | – | > 100 µM (inactive) | > 100 µM (inactive) | > 100 µM (inactive) | > 100 µM (inactive) | > 100 µM (inactive) | > 100 µM (inactive) | – | > 100 µM (inactive) | > 100 µM (inactive) | > 100 µM (inactive)
8 | O=C1Nc2cccc(Cl)c2/C1=C\c1cccnc1 | 21 µM (inactive) | 3.32 µM (inactive) | 3.16 µM (inactive) | 6.62 | 5.92 µM (inactive) | 0.944 µM (active) | – | 9.93 µM (inactive) | 9.66 µM (inactive) | 4.33 µM (inactive) | – | 16.4 µM (inactive) | 7.82 µM (inactive) | – | 5.06 µM (inactive) | – | 5.16 µM (inactive) | 9.57 µM (inactive) | 3.65 µM (inactive)
9 | CC1(C)OC(CCO)CN1C(=O)OCc1ccccc1 (stereo not given) | > 100 µM (inactive) | > 100 µM (inactive) | > 100 µM (inactive) | > 100 | – | > 100 µM (inactive) | > 100 µM (inactive) | > 100 µM (inactive) | 74.6 µM (inactive) | > 100 µM (inactive) | > 100 µM (inactive) | > 100 µM (inactive) | > 100 µM (inactive) | > 100 µM (inactive) | > 100 µM (inactive) | > 100 µM (inactive) | > 100 µM (inactive) | > 100 µM (inactive) | –
10 | CC(=O)Oc1c2oc3ccc(Cl)cc3c(=O)c2c(O)c2ccsc12 | > 100 µM (inactive) | > 100 µM (inactive) | > 100 µM (inactive) | > 100 | > 100 µM (inactive) | > 100 µM (inactive) | 28.2 µM (inactive) | > 100 µM (inactive) | – | > 100 µM (inactive) | > 100 µM (inactive) | > 100 µM (inactive) | > 100 µM (inactive) | – | > 100 µM (inactive) | > 100 µM (inactive) | > 100 µM (inactive) | > 100 µM (inactive) | 0.132 µM (active)
11 | COc1ccc(/N=[N+](\[O-])c2ccc(OC)cc2)cc1 | > 100 µM (inactive) | > 100 µM (inactive) | > 100 µM (inactive) | > 100 | > 100 µM (inactive) | – | > 100 µM (inactive) | > 100 µM (inactive) | 79.8 µM (inactive) | > 100 µM (inactive) | > 100 µM (inactive) | > 100 µM (inactive) | – | – | > 100 µM (inactive) | > 100 µM (inactive) | > 100 µM (inactive) | – | –
12 | CN(C)c1ccc(-c2c(C#N)c(O)n(NS(=O)(=O)c3ccccc3)c(=O)c2C#N)cc1 | > 100 µM (inactive) | > 100 µM (inactive) | > 100 µM (inactive) | > 100 | > 100 µM (inactive) | > 100 µM (inactive) | > 100 µM (inactive) | > 100 µM (inactive) | > 100 µM (inactive) | > 100 µM (inactive) | > 100 µM (inactive) | > 100 µM (inactive) | > 100 µM (inactive) | – | > 100 µM (inactive) | > 100 µM (inactive) | – | > 100 µM (inactive) | –
13 | CCN(CC)CCCOc1cc2c(cc1OC)C(=O)N1CCC[C@H]1C=N2 | 29.6 µM (inactive) | 19.8 µM (inactive) | 32.4 µM (inactive) | 41.5 | 17.8 µM (inactive) | 16.4 µM (inactive) | 24.2 µM (inactive) | 42.5 µM (inactive) | 11.4 µM (inactive) | 40.8 µM (inactive) | 21.1 µM (inactive) | 18.1 µM (inactive) | 42.3 µM (inactive) | 29.2 µM (inactive) | 53.7 µM (inactive) | 21.4 µM (inactive) | 39.9 µM (inactive) | 17.2 µM (inactive) | –
14 | COc1cc(C)c2c(=O)c3ccccc3n(C)c2c1 | 26.5 µM (inactive) | 26.9 µM (inactive) | 18.5 µM (inactive) | 22.3 | 11.8 µM (inactive) | 17.4 µM (inactive) | 25.6 µM (inactive) | 27.1 µM (inactive) | 2.54 µM (inactive) | 22.6 µM (inactive) | > 10 µM (inactive) | 32 µM (inactive) | 20.7 µM (inactive) | 15.6 µM (inactive) | 30.3 µM (inactive) | 20.3 µM (inactive) | – | 45.3 µM (inactive) | –
15 | Cc1ccccc1C1OC1C(=O)c1ccccc1N (stereo not given) | > 100 µM (inactive) | 87.3 µM (inactive) | 44.1 µM (inactive) | 53.3 | 45.3 µM (inactive) | 34.9 µM (inactive) | 31.6 µM (inactive) | – | – | > 100 µM (inactive) | 46.7 µM (inactive) | > 100 µM (inactive) | 78.7 µM (inactive) | > 100 µM (inactive) | 74.3 µM (inactive) | 52.8 µM (inactive) | 78.7 µM (inactive) | 80.4 µM (inactive) | –
16 | O=c1[nH]cc(NCCCl)c(=O)[nH]1 | > 100 µM (inactive) | > 100 µM (inactive) | > 100 µM (inactive) | > 100 | > 100 µM (inactive) | > 100 µM (inactive) | > 100 µM (inactive) | > 100 µM (inactive) | > 100 µM (inactive) | > 100 µM (inactive) | > 100 µM (inactive) | > 100 µM (inactive) | > 100 µM (inactive) | – | > 100 µM (inactive) | > 100 µM (inactive) | > 100 µM (inactive) | > 100 µM (inactive) | > 100 µM (inactive)
17 | COC(=O)C1=CC2CC1C(S(=O)(=O)c1ccccc1)C2S(=O)(=O)c1ccccc1 (stereo not given) | 17.6 µM (inactive) | 8.45 µM (inactive) | 14.8 µM (inactive) | 12.5 | 13.8 µM (inactive) | 13.7 µM (inactive) | – | 10.7 µM (inactive) | – | 13 µM (inactive) | 5.4 µM (inactive) | 14.1 µM (inactive) | 14 µM (inactive) | 2.56 µM (inactive) | 15.2 µM (inactive) | 22.1 µM (inactive) | 14.3 µM (inactive) | 4.59 µM (inactive) | –
